These results are taken from patent US20240108740A1, “THERAPEUTIC COMPOSITIONS INCLUDING SPN10 AND USES THEREOF” (Stealth BioTherapeutics Inc., priority 2022, published 2024).

Residues, ends and D or L forms follow the SMILES beside them.

Assay [1] has as its system isolated mouse liver mitochondria. As to the kind of experiment: Example 20: spontaneous and antimycin-induced H2O2 production by isolated mitochondria. Here is the method: Livers will be harvested from mice, homogenized in ice-cold buffer, and centrifuged at 13800×g for 10 min. The pellet will be washed once, re-suspended in 0.3 mL of wash buffer, and placed on ice until use. H2O2 will be measured using luminol chemiluminescence as described previously (Li, et al., Biochim. Biophys. Acta 1428, 1-12 (1999). 0.1 mg mitochondrial protein will be added to 0.5 mL potassium phosphate buffer (100 mM, pH 8.0) in the presence of vehicle, peptide conjugates, aromatic-cationic peptides, or SPN10(s) with or without aromatic-cationic peptides. 25 mM luminol and 0.7 IU horseradish peroxidase will be added, and chemiluminescence will be monitored with a Chronolog Model 560 aggregometer (Havertown, PA) for 20 minutes at 37° C. The amount of H2O2 produced will be quantified as the area under the curve (AUC) over 20 min, and all data will be normalized to AUC produced by mitochondria alone.

Another assay concerns Sprague Dawley rats. As to the kind of experiment: Example 45: hypermetabolism after burn injury (indirect calorimetry). The note with it: 30% total body surface area burn; IV every 12 hours for three days. Type of assay: in vivo, rat. Here is the method:
Sprague Dawley rats will be randomized into the following groups; sham-burn (SB), burn with saline treatment (B), burn with peptide conjugate-treatment (BP), burn with aromatic-cationic peptides (BP2), burn with SPN10(s) (BP3), burn with SPN10(s)+aromatic-cationic peptides (BP4). Catheters will be surgically placed into jugular vein and carotid artery. Band BP, BP2, BP3 and BP4 animals will receive 30% total body surface area full thickness burns by immersing the dorsal part into 100° C. water for 12 seconds with immediate fluid resuscitation. […] The EE of the animals will be monitored for 12 hours in a TSE Indirect Calorimetry System (TSE Co., Germany).

The next assay relates to murine burn injury model. As to the kind of experiment: Example 48: skeletal muscle redox state after burn injury (nitroxide EPR). It counts as in vivo, mouse. The note with it: 6-hour time point; i.p. 30 minutes before and immediately after burn. Here is the method:
The redox state of the gastrocnemius muscle immediately below a local cutaneous burn (90° C. for 3 sec) will be evaluated by nitroxide EPR. It is anticipated that the redox state in the muscle will be compromised by burn injury, with the most dramatic effect at 6 hours post-burn.
Peptide conjugates (3 mg/kg), aromatic-cationic peptides (an equivalent molar dose of aromatic-cationic peptide based on the concentration of the aromatic-cationic peptide administered in the peptide conjugate treatment group), SPN10(s) (an equivalent molar dose of SPN10 based on the concentration of SPN10 administered in the peptide conjugate treatment group) or SPN10(s) in combination with aromatic-cationic peptides (e.g., an equivalent molar dose of SPN10 based on the concentration of SPN10 administered in the peptide conjugate treatment group and an equivalent molar dose of aromatic-cationic peptide based on the concentration of aromatic-cationic peptide administered in the peptide conjugate treatment group) will be administered i.p. 30 minutes before burn, and immediately after burn.

Regarding `N=C(N)NCCC[C@H](NC(=O)[C@@H](N)Cc1c[nH]c2ccccc12)C(=O)N[C@@H](Cc1c[nH]c2ccccc12)C(=O)N[C@@H](CCCCN)C(N)=O` [SPN10, H-L-Trp-L-Arg-L-Trp-L-Lys-NH2] (H-WRWK-NH2), in assay [1], the “spontaneous production of H2O2” value is reported as “dose-dependently reduce the spontaneous production of H2O2”. Also, the “production of H2O2 induced by antimycin” value in assay [1] (antimycin) is given as “dose-dependently reduce the production of H2O2 induced by antimycin”. Further, the “increase in energy expenditure (EE) after burn” value in the assay with Sprague Dawley rats is recorded as “attenuate or prevent this effect”. Moreover, the “rate of nitroxide reduction in muscle beneath the burn” value with murine burn injury model is recorded as “significantly increase the rate of nitroxide reduction”.
